US20090247532A1, “Crystalline polymorph of sitagliptin phosphate and its preparation” (Mae De Ltd., priority 2008, published 2009)
Where two headings read alike, the source gives them in different places. Blank lines part the entries; values can stand above or below the compound they belong to.

How the values were obtained:
[1] = cited from earlier work; for stability of the form (in words): as reported in US 2006/0287528 or US 2007/0021430; for conversion into crystalline sitagliptin phosphate monohydrate: US 2007/0021430
[2] = Thermal phase stability of Form V on heating; assay type: physicochemical; conditions: heating up to 41° C.
Description: Additionally, Form V has lower water content, good material flow characteristic and better chemical stability.

[3] = Stability studies of Form V bulk material and tablets on storage, stability-indicating HPLC; assay type: physicochemical; conditions: bulk material
Procedure: The stability of Form V of sitagliptin phosphate bulk material and tablets is assessed by storing samples for up to 12 weeks at 25° C./60% RH or up to 3 weeks at 40° C./75% RH. Changes are monitored using a stability-indicating HPLC method. Results were calculated by normalized peak area (npa). Degradants are identified by comparison of their relative retention times against impurity standards.

[4] = Solubility of sitagliptin phosphate in water and polar organic solvents; assay type: physicochemical
Description: In a preferred aspect, Form V of sitagliptin phosphate may be prepared by slurring starting material, crude or pure sitagliptin phosphate, anhydrate or solvate, which can be obtained according to the procedures described in U.S. patent application 2005/0032804 with a polar organic solvent or a mixture of two or more polar organic solvents under heat. The sitagliptin phosphate is soluble in water, but not soluble in polar organic solvents. The preferred polar organic solvent is methanol or acetone. The concentration of sitagliptin phosphate within the solution may range from about 0.1% by weight to the saturation point. This concentration will, of course, vary depending upon the temperature at which the co-solvent solution is held, with warmer temperatures generally allowing for the preparation of more concentrated solutions of sitagliptin phosphate. Preferably, the concentration (w/w %) of sitagliptin phosphate starting material in solution is about 0.5-15%, preferably about 1-10%, more preferably about 1.5-5%. The volume ratio of water to methanol or acetone is about 1:0.1-200, preferably about 1:2-30, more preferably about 1:3-10, most preferably about 1:4-6. […]

SMILES: N[C@@H](CC(=O)N1CCn2c(nnc2C(F)(F)F)C1)Cc1cc(F)c(F)cc1F.O=P(O)(O)O [Form III]
- temperature below which the form is stable ([1]; US 2006/0287528): below 34 °C

SMILES: N[C@@H](CC(=O)N1CCn2c(nnc2C(F)(F)F)C1)Cc1cc(F)c(F)cc1F.O=P(O)(O)O [Form II]
- stability of the form (in words) [1]: metastable
- time to convert to anhydrous Form I or Form III or mixtures thereof ([1]; at about 45° C., US 2006/0287528): about 2 hours

SMILES: N[C@@H](CC(=O)N1CCn2c(nnc2C(F)(F)F)C1)Cc1cc(F)c(F)cc1F.O=P(O)(O)O [Form IV]
- conversion into crystalline sitagliptin phosphate monohydrate ([1]; ambient conditions): slowly
- stability of the form (in words) [1]: metastable
- conversion into crystalline sitagliptin phosphate monohydrate ([1]; high relative humidity (98%) at room temperature): rapidly

SMILES: N[C@@H](CC(=O)N1CCn2c(nnc2C(F)(F)F)C1)Cc1cc(F)c(F)cc1F.O=P(O)(O)O [Form I]
- conversion on grinding or compaction ([1]; grinding or compaction, US 2006/0287528): can be converted into Form III

- phase transformation on heating [2]: does not undergo a phase transformation
- time for which polymorph (phase) and chemical stability was demonstrated ([3]; elevated temperature and humidity (40° C./75%)): over 3 weeks
- time stable with respect to polymorphic form (phase) stability and formation of known and unknown degradants ([3]; stored under normal conditions of temperature and humidity): over 3 months
SMILES: N[C@@H](CC(=O)N1CCn2c(nnc2C(F)(F)F)C1)Cc1cc(F)c(F)cc1F.O=P(O)(O)O [Form V, (2R)-4-oxo-4-[3-(trifluoromethyl)-5,6-dihydro[1,2,4]triazolo[4,3-α]pyrazin-7(8H)yl]-1-(2,4,5-trifluorophenyl)butan-2-amine dihydrogenphosphate]

SMILES: N[C@@H](CC(=O)N1CCn2c(nnc2C(F)(F)F)C1)Cc1cc(F)c(F)cc1F.O=P(O)(O)O [ethanol solvate]
- stability of the form (in words) [1]: not a stable form

- solubility in polar organic solvents ([4]; polar organic solvents (e.g. methanol, acetone)): not soluble
- solubility in water ([4]; water): soluble
SMILES: N[C@@H](CC(=O)N1CCn2c(nnc2C(F)(F)F)C1)Cc1cc(F)c(F)cc1F.O=P(O)(O)O [sitagliptin phosphate, dihydrogenphosphate salt of (2R)-4-oxo-4-[3-(trifluoromethyl)-5,6-dihydro[1,2,4]triazolo[4,3-α]pyrazin-7(8H)yl]-1-(2,4,5-trifluorophenyl)butan-2-amine]
